Laboratory results reported in ChEMBL document CHEMBL4043198, “Synthesis and electronic properties of ester substituted 1,4-dicyanodibenzodioxins and evaluation of anti-proliferative activity of all isomeric 1,2-, 2,3- and 1,4-dicyanodibenzodioxins against HeLa cell line” (Bioorg Med Chem Lett, 2017).
The source made the active and inactive calls. The calls are words filed in the database; no cut-off is given here.

Tests used:
[1] = system: HeLa; experiment: Cytotoxicity against human HeLa cells assessed as reduction in cell viability after 24 hrs by MTT assay; assay type: functional, cell-based
[2] = system: HEK293; experiment: Cytotoxicity against HEK293 cells assessed as reduction in cell viability at 2 to 5 uM after 24 hrs by MTT assay; assay type: cell-based; details: human, hek293, 24 h
[3] = system: HeLa; experiment: Cytotoxicity against human HeLa cells assessed as reduction in cell viability at 2 to 50 uM after 24 hrs by MTT assay relative to control; assay type: functional
[4] = system: HeLa; experiment: Cytotoxicity against human HeLa cells assessed as cell viability at 2 uM after 24 hrs by MTT assay relative to control; assay type: functional; details: read-out: Activity
[5] = system: HeLa; experiment: Induction of morphological changes in human HeLa cells assessed as rounding-off of cells after 24 hrs by Hoechst 33258 staining based fluorescence microscopic analysis; assay type: functional, cell-based
[6] = system: HeLa; experiment: Induction of morphological changes in human HeLa cells assessed as nuclear fragmentation after 24 hrs by Hoechst 33258 staining based fluorescence microscopic analysis; assay type: functional, cell-based
[7] = system: HeLa; experiment: Induction of morphological changes in human HeLa cells assessed as loss of cell shape after 24 hrs by Hoechst 33258 staining based fluorescence microscopic analysis; assay type: functional
[8] = system: HeLa; experiment: Induction of reactive oxygen species generation in human HeLa cells at 5 to 10 uM after 24 hrs by DCFDA dye-based fluorescence assay; assay type: functional, cell-based
[9] = organism: Bos taurus; experiment: Binding affinity to calf thymus DNA assessed as intrinsic binding constant by UV spectrophotometry

SMILES | Activity [1] | IC50 [1] [nM] | Activity [2] | Activity [3] | viability at 2 µM [4] [%] | Activity [5] | Activity [6] | Activity [7] | Activity [8] | logKb [9]
N#Cc1cc2c(cc1C#N)Oc1cc(Br)ccc1O2 | Dose-dependent effect | 8820 | Non-Toxic | 70 - 80% | – | – | – | – | – | –
COC(=O)c1ccc2c(c1)Oc1c(C#N)c(F)c(F)c(C#N)c1O2 | Dose-dependent effect | 2990 | Non-Toxic | – | 50 | Dose-dependent effect | Dose-dependent effect | Dose-dependent effect | Active | 5.39
N#Cc1cc2c(cc1C#N)Oc1ccccc1O2 | Dose-dependent effect | – | Non-Toxic | 70 - 80% | – | – | – | – | – | –
N#Cc1c(F)c(F)c2c(c1C#N)Oc1ccccc1O2 | Dose-dependent effect | 42200 | Non-Toxic | – | – | – | – | – | – | –
N#Cc1cc2c(cc1C#N)Oc1cc([N+](=O)[O-])ccc1O2 | – | – | – | 70 - 80% | – | – | – | – | – | –
O=c1[nH]cc(F)c(=O)[nH]1 [FLUOROURACIL] | – | 2900 | – | – | – | – | – | – | – | –
CCN(CC)c1c(F)c(C#N)c2c(c1C#N)Oc1ccccc1O2 | Dose-dependent effect | 1470 | Non-Toxic | – | 30 | Dose-dependent effect | Dose-dependent effect | Dose-dependent effect | Active | 5.5
COC(=O)c1cccc2c1Oc1c(C#N)c(F)c(F)c(C#N)c1O2 | Dose-dependent effect | 1570 | Non-Toxic | – | 35 | Dose-dependent effect | Dose-dependent effect | Dose-dependent effect | Active | 6
N#Cc1c(F)c(F)c(C#N)c2c1Oc1ccccc1O2 | Dose-dependent effect | 9620 | Non-Toxic | 70 - 80% | – | – | – | – | – | –
COc1c(F)c(C#N)c2c(c1C#N)Oc1ccccc1O2 | Dose-dependent effect | 1450 | Non-Toxic | – | 30 | Dose-dependent effect | Dose-dependent effect | Dose-dependent effect | Active | 5.38
CC/C(=C(\c1ccccc1)c1ccc(OCCN(C)C)cc1)c1ccccc1 [TAMOXIFEN] | – | 8850 | – | – | – | – | – | – | – | –
